# Results as given in the supplement of paper PMC13386468.
# How the values were obtained:
# Experiment in all cases: IC50 for competition of protein binding to Kinobeads
# Details in all cases: assay detail: Kinobeads competition in P. falciparum blood-stage lysate
# UniProt C0H4Y6 = molecular target: UniProt C0H4Y6
# UniProt C0H570 = molecular target: UniProt C0H570
# UniProt C0H5J2 = molecular target: UniProt C0H5J2
# UniProt C6KST5 = molecular target: UniProt C6KST5
# UniProt O77310 = molecular target: UniProt O77310
# UniProt O77345 = molecular target: UniProt O77345
# UniProt O77388 = molecular target: UniProt O77388
# UniProt O96217 = molecular target: UniProt O96217
# UniProt O96236 = molecular target: UniProt O96236
# UniProt Q76NM8 = molecular target: UniProt Q76NM8
# UniProt Q7K6A5 = molecular target: UniProt Q7K6A5
# UniProt Q7K6A9 = molecular target: UniProt Q7K6A9
# UniProt Q7KQK6 = molecular target: UniProt Q7KQK6
# UniProt Q8I0U7 = molecular target: UniProt Q8I0U7
# UniProt Q8I1Q9 = molecular target: UniProt Q8I1Q9
# UniProt Q8I249 = molecular target: UniProt Q8I249
# UniProt Q8I274 = molecular target: UniProt Q8I274
# UniProt Q8I2H3 = molecular target: UniProt Q8I2H3
# UniProt Q8I2I2 = molecular target: UniProt Q8I2I2
# UniProt Q8I2X3 = molecular target: UniProt Q8I2X3
# UniProt Q8I3T4 = molecular target: UniProt Q8I3T4
# UniProt Q8I423 = molecular target: UniProt Q8I423
# UniProt Q8I431 = molecular target: UniProt Q8I431
# UniProt Q8I5D2 = molecular target: UniProt Q8I5D2
# UniProt Q8I635 = molecular target: UniProt Q8I635
# UniProt Q8IAL6 = molecular target: UniProt Q8IAL6
# UniProt Q8IAV6 = molecular target: UniProt Q8IAV6
# UniProt Q8IC05 = molecular target: UniProt Q8IC05
# UniProt Q8ID72 = molecular target: UniProt Q8ID72
# UniProt Q8IE18 = molecular target: UniProt Q8IE18
# UniProt Q8IE76 = molecular target: UniProt Q8IE76
# UniProt Q8IEE5 = molecular target: UniProt Q8IEE5
# UniProt Q8IEE9 = molecular target: UniProt Q8IEE9
# UniProt Q8IEL1 = molecular target: UniProt Q8IEL1
# UniProt Q8IEQ1 = molecular target: UniProt Q8IEQ1
# UniProt Q8II23 = molecular target: UniProt Q8II23
# UniProt Q8II62 = molecular target: UniProt Q8II62
# UniProt Q8IIV1 = molecular target: UniProt Q8IIV1
# UniProt Q8IJG6 = molecular target: UniProt Q8IJG6
# UniProt Q8IJN9 = molecular target: UniProt Q8IJN9
# UniProt Q8IKH3 = molecular target: UniProt Q8IKH3
# UniProt Q8IL11 = molecular target: UniProt Q8IL11
# UniProt Q8ILC8 = molecular target: UniProt Q8ILC8
# UniProt Q8ILQ3 = molecular target: UniProt Q8ILQ3
# UniProt Q8ILR7 = molecular target: UniProt Q8ILR7
# UniProt Q8ILV2 = molecular target: UniProt Q8ILV2
# UniProt Q8ILX1 = molecular target: UniProt Q8ILX1
# UniProt Q8IM10 = molecular target: UniProt Q8IM10
# UniProt Q8IM16 = molecular target: UniProt Q8IM16
# UniProt Q8IM71 = molecular target: UniProt Q8IM71
# UniProt Q9TY98 = molecular target: UniProt Q9TY98
# 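Note: native unpurified kinases from lysate captured on beads bearing immobilized kinase inhibitors, with bead-bound kinases quantified by mass spectrometry across compound doses.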
# Sequence of UniProt Q8IM16 (Q8IM16 whole entry): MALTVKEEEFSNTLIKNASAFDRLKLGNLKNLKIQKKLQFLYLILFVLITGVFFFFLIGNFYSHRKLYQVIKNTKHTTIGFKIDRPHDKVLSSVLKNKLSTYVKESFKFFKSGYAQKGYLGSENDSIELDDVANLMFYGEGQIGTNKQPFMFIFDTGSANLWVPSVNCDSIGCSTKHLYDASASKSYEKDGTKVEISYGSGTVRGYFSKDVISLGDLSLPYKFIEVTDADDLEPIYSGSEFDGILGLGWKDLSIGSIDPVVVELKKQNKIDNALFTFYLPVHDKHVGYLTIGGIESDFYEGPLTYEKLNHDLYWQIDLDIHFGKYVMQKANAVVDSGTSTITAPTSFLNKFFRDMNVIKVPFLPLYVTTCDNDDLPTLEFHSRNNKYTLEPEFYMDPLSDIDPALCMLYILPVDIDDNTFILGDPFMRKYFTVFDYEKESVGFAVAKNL
# Sequence of UniProt Q8I5D2 (Q8I5D2 whole entry): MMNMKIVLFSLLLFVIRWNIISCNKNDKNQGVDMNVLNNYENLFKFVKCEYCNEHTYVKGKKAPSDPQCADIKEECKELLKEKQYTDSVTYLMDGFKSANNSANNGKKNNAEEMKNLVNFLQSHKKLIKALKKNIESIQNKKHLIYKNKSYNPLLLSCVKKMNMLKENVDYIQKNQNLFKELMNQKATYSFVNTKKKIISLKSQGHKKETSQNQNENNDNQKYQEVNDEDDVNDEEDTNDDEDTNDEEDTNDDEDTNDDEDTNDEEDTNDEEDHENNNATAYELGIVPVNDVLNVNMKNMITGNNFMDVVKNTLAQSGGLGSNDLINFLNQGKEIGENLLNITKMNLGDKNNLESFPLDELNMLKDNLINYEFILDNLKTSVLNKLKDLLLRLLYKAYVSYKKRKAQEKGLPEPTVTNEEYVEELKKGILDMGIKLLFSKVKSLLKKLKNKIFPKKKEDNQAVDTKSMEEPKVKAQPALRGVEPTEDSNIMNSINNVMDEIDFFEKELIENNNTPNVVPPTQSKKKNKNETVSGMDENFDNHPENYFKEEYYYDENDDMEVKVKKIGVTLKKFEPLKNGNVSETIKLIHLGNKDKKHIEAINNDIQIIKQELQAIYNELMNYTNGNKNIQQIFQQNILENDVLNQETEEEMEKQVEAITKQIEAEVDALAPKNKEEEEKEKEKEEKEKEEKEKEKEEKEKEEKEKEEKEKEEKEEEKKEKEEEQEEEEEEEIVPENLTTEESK
# Sequence of UniProt Q7K6A5 (Q7K6A5 whole entry): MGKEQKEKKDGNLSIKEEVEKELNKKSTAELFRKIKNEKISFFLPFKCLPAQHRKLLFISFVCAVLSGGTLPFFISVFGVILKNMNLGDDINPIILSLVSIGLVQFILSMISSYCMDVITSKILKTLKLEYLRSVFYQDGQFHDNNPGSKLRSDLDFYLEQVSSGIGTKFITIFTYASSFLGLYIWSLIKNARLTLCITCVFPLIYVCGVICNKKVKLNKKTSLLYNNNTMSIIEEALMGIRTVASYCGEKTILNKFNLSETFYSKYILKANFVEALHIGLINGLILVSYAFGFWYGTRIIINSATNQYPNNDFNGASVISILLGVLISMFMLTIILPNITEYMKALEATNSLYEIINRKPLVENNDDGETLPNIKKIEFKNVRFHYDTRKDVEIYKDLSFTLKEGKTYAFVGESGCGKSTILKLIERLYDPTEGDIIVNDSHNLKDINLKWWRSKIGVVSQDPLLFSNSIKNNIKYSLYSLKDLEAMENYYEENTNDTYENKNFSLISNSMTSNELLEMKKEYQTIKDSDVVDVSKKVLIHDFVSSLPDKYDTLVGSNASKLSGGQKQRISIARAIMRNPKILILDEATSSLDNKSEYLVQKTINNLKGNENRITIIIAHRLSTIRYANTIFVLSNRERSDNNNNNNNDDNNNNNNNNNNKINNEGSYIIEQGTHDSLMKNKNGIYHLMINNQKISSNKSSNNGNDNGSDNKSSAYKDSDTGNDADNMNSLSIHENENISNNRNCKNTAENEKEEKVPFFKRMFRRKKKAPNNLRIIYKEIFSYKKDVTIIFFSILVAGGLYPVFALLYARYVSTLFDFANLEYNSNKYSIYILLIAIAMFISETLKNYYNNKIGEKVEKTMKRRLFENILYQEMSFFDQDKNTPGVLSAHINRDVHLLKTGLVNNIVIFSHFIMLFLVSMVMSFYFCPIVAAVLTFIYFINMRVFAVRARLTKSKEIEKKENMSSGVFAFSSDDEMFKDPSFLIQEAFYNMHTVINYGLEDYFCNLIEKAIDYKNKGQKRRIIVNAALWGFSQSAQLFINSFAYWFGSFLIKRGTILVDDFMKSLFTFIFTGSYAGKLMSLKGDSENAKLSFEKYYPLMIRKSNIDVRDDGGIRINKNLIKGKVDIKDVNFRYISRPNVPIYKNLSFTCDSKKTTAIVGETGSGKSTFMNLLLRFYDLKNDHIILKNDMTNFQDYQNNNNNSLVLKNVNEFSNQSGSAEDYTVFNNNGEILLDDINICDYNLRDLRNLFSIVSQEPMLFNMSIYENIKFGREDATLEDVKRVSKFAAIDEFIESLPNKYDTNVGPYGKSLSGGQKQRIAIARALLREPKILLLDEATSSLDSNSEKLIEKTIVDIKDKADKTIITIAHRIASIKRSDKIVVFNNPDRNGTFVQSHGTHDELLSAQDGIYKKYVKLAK
# Sequence of UniProt Q8IL11 (Q8IL11 whole entry): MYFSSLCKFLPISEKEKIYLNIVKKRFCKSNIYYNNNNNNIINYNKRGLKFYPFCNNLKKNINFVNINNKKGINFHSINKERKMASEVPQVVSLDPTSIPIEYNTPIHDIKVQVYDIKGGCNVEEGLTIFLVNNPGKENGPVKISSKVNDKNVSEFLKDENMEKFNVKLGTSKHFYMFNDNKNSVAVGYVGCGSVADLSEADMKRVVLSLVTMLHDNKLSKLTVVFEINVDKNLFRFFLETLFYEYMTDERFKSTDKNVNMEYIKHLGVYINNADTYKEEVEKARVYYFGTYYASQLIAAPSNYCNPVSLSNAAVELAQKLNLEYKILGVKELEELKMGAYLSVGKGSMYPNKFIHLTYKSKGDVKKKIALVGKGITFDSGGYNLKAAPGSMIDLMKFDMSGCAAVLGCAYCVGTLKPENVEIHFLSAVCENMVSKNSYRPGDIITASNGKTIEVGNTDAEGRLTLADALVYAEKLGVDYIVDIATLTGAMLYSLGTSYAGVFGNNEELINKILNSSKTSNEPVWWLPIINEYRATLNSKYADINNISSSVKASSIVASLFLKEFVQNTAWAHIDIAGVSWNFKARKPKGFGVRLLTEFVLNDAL
# Sequence of UniProt Q8I423 (Q8I423 whole entry): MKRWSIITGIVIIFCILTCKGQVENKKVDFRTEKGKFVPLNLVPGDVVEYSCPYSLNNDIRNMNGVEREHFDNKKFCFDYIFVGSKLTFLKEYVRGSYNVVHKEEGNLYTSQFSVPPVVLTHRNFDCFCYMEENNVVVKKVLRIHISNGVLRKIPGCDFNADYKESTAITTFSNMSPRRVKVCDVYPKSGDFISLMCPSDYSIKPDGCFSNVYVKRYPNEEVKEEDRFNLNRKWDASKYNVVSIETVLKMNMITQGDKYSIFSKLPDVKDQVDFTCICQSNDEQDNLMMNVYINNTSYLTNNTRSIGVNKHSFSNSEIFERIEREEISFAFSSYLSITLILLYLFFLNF
# Sequence of UniProt Q8I2X3 (Q8I2X3 whole entry): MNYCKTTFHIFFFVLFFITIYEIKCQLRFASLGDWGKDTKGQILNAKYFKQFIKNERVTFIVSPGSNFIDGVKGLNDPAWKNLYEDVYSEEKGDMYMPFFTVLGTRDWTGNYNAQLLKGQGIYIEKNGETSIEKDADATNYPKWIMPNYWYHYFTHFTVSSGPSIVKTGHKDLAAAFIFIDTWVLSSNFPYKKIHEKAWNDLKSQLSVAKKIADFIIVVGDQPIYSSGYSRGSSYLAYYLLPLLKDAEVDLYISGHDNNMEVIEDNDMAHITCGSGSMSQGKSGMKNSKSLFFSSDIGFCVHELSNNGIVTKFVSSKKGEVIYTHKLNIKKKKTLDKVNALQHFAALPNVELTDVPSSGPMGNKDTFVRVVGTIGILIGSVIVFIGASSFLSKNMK
compound,measurement,setting,value
O=c1[nH]c2ccc(Cl)cc2c(NC2CN3CCC2CC3)c1-c1nc2ccccc2[nH]1 (stereo unspecified) [CHIR-124],IC50,UniProt C0H4Y6,> 20 µM
same,IC50,UniProt C0H570,> 20 µM
same,IC50,UniProt C0H5J2,> 20 µM
same,IC50,UniProt C6KST5,> 20 µM
same,IC50,UniProt O77310,> 20 µM
same,IC50,UniProt O77345,> 20 µM
same,IC50,UniProt O77388,> 20 µM
same,IC50,UniProt O96217,> 20 µM
same,IC50,UniProt O96236,> 20 µM
same,IC50,UniProt Q76NM8,> 20 µM
same,IC50,UniProt Q7K6A5,> 20 µM
same,IC50,UniProt Q7K6A9,> 20 µM
same,IC50,UniProt Q7KQK6,> 20 µM
same,IC50,UniProt Q8I0U7,> 20 µM
same,IC50,UniProt Q8I1Q9,> 20 µM
same,IC50,UniProt Q8I249,> 20 µM
same,IC50,UniProt Q8I274,> 20 µM
same,IC50,UniProt Q8I2H3,> 20 µM
same,IC50,UniProt Q8I2I2,> 20 µM
same,IC50,UniProt Q8I2X3,> 20 µM
same,IC50,UniProt Q8I3T4,> 20 µM
same,IC50,UniProt Q8I423,> 20 µM
same,IC50,UniProt Q8I431,> 20 µM
same,IC50,UniProt Q8I5D2,> 20 µM
same,IC50,UniProt Q8I635,> 20 µM
same,IC50,UniProt Q8IAL6,> 20 µM
same,IC50,UniProt Q8IAV6,> 20 µM
same,IC50,UniProt Q8IC05,> 20 µM
same,IC50,UniProt Q8ID72,> 20 µM
same,IC50,UniProt Q8IE18,> 20 µM
same,IC50,UniProt Q8IE76,> 20 µM
same,IC50,UniProt Q8IEE5,> 20 µM
same,IC50,UniProt Q8IEE9,> 20 µM
same,IC50,UniProt Q8IEL1,2.9 µM
same,IC50,UniProt Q8IEQ1,> 20 µM
same,IC50,UniProt Q8II23,> 20 µM
same,IC50,UniProt Q8II62,> 20 µM
same,IC50,UniProt Q8IIV1,> 20 µM
same,IC50,UniProt Q8IJG6,> 20 µM
same,IC50,UniProt Q8IJN9,> 20 µM
same,IC50,UniProt Q8IKH3,> 20 µM
same,IC50,UniProt Q8IL11,> 20 µM
same,IC50,UniProt Q8ILC8,> 20 µM
same,IC50,UniProt Q8ILQ3,> 20 µM
same,IC50,UniProt Q8ILR7,> 20 µM
same,IC50,UniProt Q8ILV2,> 20 µM
same,IC50,UniProt Q8ILX1,> 20 µM
same,IC50,UniProt Q8IM10,> 20 µM
same,IC50,UniProt Q8IM16,> 20 µM
same,IC50,UniProt Q8IM71,> 20 µM
same,IC50,UniProt Q9TY98,> 20 µM
